# Assay results: patent US6022901A, “Administration of resveratrol to prevent or treat restenosis following coronary intervention” (priority 1998, dated 2000)
# Values joined by “and” are separate entries in the source; they are usually repeats but may differ in a detail not shown here. Equal values may be shown once.
# What was measured:
# [1] = Effect of Resveratrol on Body Weight of Female A/J Mice (diet, 6-week treatment); type: in vivo
# From the text: (§1) This experimental work assesses the bioavailability of resveratrol when administered orally to Female Mice Strain A, establishes the relationship betveen oral administration of resveratrol and the plasma concentration of the female mice, assesses the method of analysis for mouse plasma and establishes the detection limit of resveratrol in animal plasma. The mice were received from the Biological Testing Branch, National Cancer Institute, at 4-6 weeks of age, each having a body weight of approximately 16 g.
# (§2) After a quarantine period of one week, seven (7) groups each consisting of 10 mice were given resveratrol mixed with Teklad 4% Mouse/Rat chow ad libitum for a 6-week treatment period. As indicated in the table which follows, the concentration of resveratrol ranged from 125 mg/kg of diet to 3000 mg/kg of diet, with one group, as the control group, receiving only the mouse chow.
# (§3) Parameters monitored during the course of the study included sided-cage observations twice daily and body weight. Blood samples were taken at the end of the treatment period of 6 weeks and kept frozen at -20° C.±5 until the time of analysis. All animals were sacrificed by asphyxiation.
# [2] = anti-initiation activity; cited from earlier work
# [3] = tested on: human promyelocytic leukemia cell; details: cited from earlier work
# [4] = anti-initiation activity; cited from earlier work; remark: listed apart in the source
# [5] = Clinical signs, cage observations twice daily in mice fed resveratrol; type: in vivo, mouse (Female Mice Strain A); details: any dose groups tested, 125-3000 mg/kg diet, 6 weeks
# From the text: as §1, §2, §3
# [6] = antipromotion activity; cited from earlier work
# [7] = Resveratrol concentration in mouse plasma after oral administration in diet (HPLC); type: in vivo, mouse (Female Mice Strain A); details: for concentration at 1008 h: plasma, po, 6 weeks
# From the text: as §1
# After a quarantine period of one week, seven (7) groups each consisting of 10 mice were given resveratrol mixed with Teklad 4% Mouse/Rat chow ad libitum for a 6-week treatment period.
# as §3
# Plasma resveratrol concentration was determined by a liquid-liquid extraction method and reverse phase HPLC at Pharmascience Inc., Bio-analytical Division, Quebec, Canada, as follows. After addition of internal standard and buffer to plasma samples, ethyl acetate was then added. The extracted organic phase was transferred to a clean tube and dried with a nitrogen evaporator. The residue was reconstituted with the mobile phase and then injected to HPLC with UV at 310 nm.
# [8] = tested on: phase II drug-metabolizing enzymes; details: anti-initiation activity; cited from earlier work
# cyclooxygenase = details: antipromotion activity; cited from earlier work
# hydroperoxidase = details: antipromotion activity; cited from earlier work
smiles,measurement,setting,value
"Oc1ccc(C=Cc2cc(O)cc(O)c2)cc1 [resveratrol, 3,5,4'-trihydroxy stilbene]",mean body weight,"[1]; 125 ppm, day 5, N=10",16.4 Grams
same,mean body weight,"[1]; 125 ppm, day 8, N=10",16.6 Grams
same,mean body weight,"[1]; 125 ppm, day 12, N=10",17.3 Grams
same,mean body weight,"[1]; 125 ppm, day 15, N=10",18.0 Grams
same,mean body weight,"[1]; 125 ppm, day 19, N=10",18.4 Grams
same,mean body weight,"[1]; 125 ppm, day 22, N=10",18.7 Grams
same,mean body weight,"[1]; 125 ppm, day 26, N=10",19.0 Grams
same,mean body weight,"[1]; 125 ppm, day 29, N=10",19.0 Grams
same,mean body weight,"[1]; 125 ppm, day 33, N=10",19.4 Grams
same,mean body weight,"[1]; 125 ppm, day 36, N=10",19.3 Grams
same,mean body weight,"[1]; 125 ppm, day 40, N=10",19.2 Grams
same,mean body weight,"[1]; 125 ppm, day 42, N=10",19.7 Grams
same,mean body weight,"[1]; 250 ppm, day 5, N=10",16.2 Grams
same,mean body weight,"[1]; 250 ppm, day 8, N=10",16.8 Grams
same,mean body weight,"[1]; 250 ppm, day 12, N=10",17.7 Grams
same,mean body weight,"[1]; 250 ppm, day 15, N=10",18.4 Grams
same,mean body weight,"[1]; 250 ppm, day 19, N=10",18.9 Grams
same,mean body weight,"[1]; 250 ppm, day 22, N=10",19.0 Grams
same,mean body weight,"[1]; 250 ppm, day 26, N=10",19.3 Grams
same,mean body weight,"[1]; 250 ppm, day 29, N=10",19.4 Grams
same,mean body weight,"[1]; 250 ppm, day 33, N=10",19.7 Grams
same,mean body weight,"[1]; 250 ppm, day 36, N=10",19.6 Grams
same,mean body weight,"[1]; 250 ppm, day 40, N=10",19.9 Grams
same,mean body weight,"[1]; 250 ppm, day 42, N=10",19.9 Grams
same,mean body weight,"[1]; 500 ppm, day 5, N=10",16.6 Grams
same,mean body weight,"[1]; 500 ppm, day 8, N=10",17.5 Grams
same,mean body weight,"[1]; 500 ppm, day 12, N=10",17.8 Grams
same,mean body weight,"[1]; 500 ppm, day 15, N=10",18.3 Grams
same,mean body weight,"[1]; 500 ppm, day 19, N=10",18.7 Grams
same,mean body weight,"[1]; 500 ppm, day 22, N=10",19.2 Grams
same,mean body weight,"[1]; 500 ppm, day 26, N=10",19.4 Grams
same,mean body weight,"[1]; 500 ppm, day 29, N=10",19.8 Grams
same,mean body weight,"[1]; 500 ppm, day 33, N=10",19.8 Grams
same,mean body weight,"[1]; 500 ppm, day 36, N=10",20.1 Grams
same,mean body weight,"[1]; 500 ppm, day 40, N=10",20.0 Grams
same,mean body weight,"[1]; 500 ppm, day 42, N=10",20.2 Grams
same,mean body weight,"[1]; 1000 ppm, day 5, N=10",16.1 Grams
same,mean body weight,"[1]; 1000 ppm, day 8, N=10",16.9 Grams
same,mean body weight,"[1]; 1000 ppm, day 12, N=10",17.4 Grams
same,mean body weight,"[1]; 1000 ppm, day 15, N=10",18.2 Grams
same,mean body weight,"[1]; 1000 ppm, day 19, N=10",18.1 Grams
same,mean body weight,"[1]; 1000 ppm, day 22, N=10",18.8 Grams
same,mean body weight,"[1]; 1000 ppm, day 26, N=10",19.0 Grams
same,mean body weight,"[1]; 1000 ppm, day 29, N=10",19.3 Grams
same,mean body weight,"[1]; 1000 ppm, day 33, N=10",19.5 Grams
same,mean body weight,"[1]; 1000 ppm, day 36, N=10",19.8 Grams
same,mean body weight,"[1]; 1000 ppm, day 40, N=10",19.5 Grams
same,mean body weight,"[1]; 1000 ppm, day 42, N=10",19.6 Grams
same,mean body weight,"[1]; 2000 ppm, day 5, N=10",16.3 Grams
same,individual body weight,"[1]; 2000 ppm, day 5, animals 51-60",17.8 Grams and 15.7 Grams and 16.1 Grams and 17.0 Grams and 13.7 Grams
same,mean body weight,"[1]; 2000 ppm, day 8, N=10",16.6 Grams
same,individual body weight,"[1]; 2000 ppm, day 8, animals 51-60",19.1 Grams and 15.8 Grams and 14.8 Grams and 16.5 Grams and 13.6 Grams
same,mean body weight,"[1]; 2000 ppm, day 12, N=10",17.7 Grams
same,individual body weight,"[1]; 2000 ppm, day 12, animals 51-60",19.5 Grams and 16.9 Grams and 17.0 Grams and 19.2 Grams and 18.1 Grams and 15.3 Grams
same,mean body weight,"[1]; 2000 ppm, day 15, N=10",17.7 Grams
same,individual body weight,"[1]; 2000 ppm, day 15, animals 51-60",19.6 Grams and 16.9 Grams and 16.7 Grams and 19.0 Grams and 17.7 Grams and 14.5 Grams
same,mean body weight,"[1]; 2000 ppm, day 19, N=10",18.8 Grams
same,individual body weight,"[1]; 2000 ppm, day 19, animals 51-60",20.1 Grams and 18.4 Grams and 19.5 Grams and 15.7 Grams
same,mean body weight,"[1]; 2000 ppm, day 22, N=10",19.1 Grams
same,individual body weight,"[1]; 2000 ppm, day 22, animals 51-60",20.3 Grams and 18.8 Grams and 18.4 Grams and 20.9 Grams and 20.0 Grams and 16.3 Grams
same,mean body weight,"[1]; 2000 ppm, day 26, N=10",19.2 Grams
same,individual body weight,"[1]; 2000 ppm, day 26, animals 51-60",20.2 Grams and 19.0 Grams and 18.7 Grams and 20.7 Grams and 19.9 Grams and 16.0 Grams
same,mean body weight,"[1]; 2000 ppm, day 29, N=10",19.5 Grams
same,individual body weight,"[1]; 2000 ppm, day 29, animals 51-60",20.7 Grams and 19.5 Grams and 18.8 Grams and 21.4 Grams and 20.0 Grams and 16.1 Grams
same,mean body weight,"[1]; 2000 ppm, day 33, N=10",19.8 Grams
same,individual body weight,"[1]; 2000 ppm, day 33, animals 51-60",21.0 Grams and 19.8 Grams and 19.5 Grams and 21.2 Grams and 20.7 Grams and 16.6 Grams
same,mean body weight,"[1]; 2000 ppm, day 36, N=10",19.6 Grams
same,individual body weight,"[1]; 2000 ppm, day 36, animals 51-60",21.3 Grams and 18.4 Grams and 18.5 Grams and 20.4 Grams and 20.0 Grams and 16.7 Grams
same,mean body weight,"[1]; 2000 ppm, day 40, N=10",19.7 Grams
same,individual body weight,"[1]; 2000 ppm, day 40, animals 51-60",20.3 Grams and 19.9 Grams and 18.9 Grams and 21.0 Grams and 20.9 Grams and 17.2 Grams
same,mean body weight,"[1]; 2000 ppm, day 42, N=10",20.3 Grams
same,individual body weight,"[1]; 2000 ppm, day 42, animals 51-60",19.5 Grams and 21.7 Grams and 19.2 Grams and 21.9 Grams and 21.3 Grams and 18.0 Grams
same,mean body weight,"[1]; group 7, 300 (ppm), day 5, N=10",16.3 Grams
same,individual body weight,"[1]; group 7, 300 (ppm), day 5, animals 61-70",16.0 Grams and 14.9 Grams and 15.2 Grams
same,mean body weight,"[1]; group 7, 300 (ppm), day 8, N=10",17.1 Grams
same,individual body weight,"[1]; group 7, 300 (ppm), day 8, animals 61-70",16.8 Grams and 16.4 Grams and 16.1 Grams
same,mean body weight,"[1]; group 7, 300 (ppm), day 12, N=10",17.6 Grams
same,individual body weight,"[1]; group 7, 300 (ppm), day 12, animals 61-70",17.6 Grams and 17.5 Grams and 17.4 Grams
same,mean body weight,"[1]; group 7, 300 (ppm), day 15, N=10",17.1 Grams
same,individual body weight,"[1]; group 7, 300 (ppm), day 15, animals 61-70",16.9 Grams and 17.2 Grams
same,mean body weight,"[1]; group 7, 300 (ppm), day 19, N=10",18.7 Grams
same,individual body weight,"[1]; group 7, 300 (ppm), day 19, animals 61-70",18.8 Grams and 18.2 Grams
same,mean body weight,"[1]; group 7, 300 (ppm), day 22, N=10",19.1 Grams
same,individual body weight,"[1]; group 7, 300 (ppm), day 22, animals 61-70",18.5 Grams and 18.6 Grams
same,mean body weight,"[1]; group 7, 300 (ppm), day 26, N=10",19.1 Grams
same,individual body weight,"[1]; group 7, 300 (ppm), day 26, animals 61-70",18.6 Grams and 18.5 Grams
same,mean body weight,"[1]; group 7, 300 (ppm), day 29, N=10",18.9 Grams
same,individual body weight,"[1]; group 7, 300 (ppm), day 29, animals 61-70",18.8 Grams and 18.3 Grams
same,mean body weight,"[1]; group 7, 300 (ppm), day 33, N=10",19.5 Grams
same,individual body weight,"[1]; group 7, 300 (ppm), day 33, animals 61-70",18.7 Grams and 18.8 Grams
same,mean body weight,"[1]; group 7, 300 (ppm), day 36, N=10",19.9 Grams
same,individual body weight,"[1]; group 7, 300 (ppm), day 36, animals 61-70",19.4 Grams and 18.6 Grams
same,mean body weight,"[1]; group 7, 300 (ppm), day 40, N=10",19.6 Grams
same,individual body weight,"[1]; group 7, 300 (ppm), day 40, animals 61-70",19.3 Grams and 19.1 Grams
same,mean body weight,"[1]; group 7, 300 (ppm), day 42, N=10",20.1 Grams
same,individual body weight,"[1]; group 7, 300 (ppm), day 42, animals 61-70",19.1 Grams and 19.5 Grams
same,antioxidant activity,[2],acted as an antioxidant
same,human promyelocytic leukemia cell differentiation,[3],induced human promyelocytic leukemia cell differentiation
same,antimutagen activity,[4],antimutagen
same,compound-related clinical signs,[5],no compound-related clinical signs
same,anti-inflammatory effects,[6],mediated anti-inflammatory effects
same,oral absorption,[7]; mixed with chow,easily absorbed by the oral route
same,relationship between plasma resveratrol levels and amount administered,"[7]; oral in diet, FIG. 1",linear relationship
same,concentration at 1008 h,"[7]; 125 mg/kg diet, n=5",10.8 ng/mL
same,concentration at 1008 h,"[7]; 250 mg/kg diet, n=4",87.9 ng/mL
same,concentration at 1008 h,"[7]; 500 mg/kg diet, n=5",56.8 ng/mL
same,concentration at 1008 h,"[7]; 1000 mg/kg diet, n=5",99 ng/mL
same,concentration at 1008 h,"[7]; 2000 mg/kg diet, n=5",178 ng/mL
same,concentration at 1008 h,"[7]; 3000 mg/kg diet, n=5",447 ng/mL
same,induction of phase II drug-metabolizing enzymes,[8],induced phase II drug-metabolizing enzymes
same,inhibition of cyclooxygenase,cyclooxygenase,inhibited cyclooxygenase
same,inhibition of hydroperoxidase,hydroperoxidase,inhibited cyclooxygenase and hydroperoxidase
